Converted amounts (≈) assume the structure as drawn. Read-outs that look alike come from different tables or passages of the source.

Broadly, the ED50 is the midpoint of the dose-response relation.

In experiment [1] the test system is S. epidermidis. Briefly: In vitro broth microdilution minimal inhibitory concentration, S. epidermidis (Table I). The class given is cell-based. The note with it: Staphylococcus epidermidis, read-out: MIC (minimal inhibitory concentration), S. epidermidis. From the text:
(§1) A list is presented in Table I of analogs which exert an in-vitro antibacterial effect.
(Dilution methods test growth across graded concentrations, often in twofold steps.)

The test system of experiment [2] is E. Coli. Briefly: In vitro broth microdilution minimal inhibitory concentration, E. Coli (Table I). The class given is cell-based. The note with it: Escherichia coli, read-out: MIC (minimal inhibitory concentration), E. Coli.
Text: as §1

Experiment [3] relates to Staphylococcus aureus. In words: In vivo efficacy in mice infected intraperitoneally with Staphylococcus aureus (Table III). The note with it: 4 h, read-out: ED50, S. auerus. The procedure: (§2) In-vivo efficacy determinations were performed by inoculating mice interaperitoneally with cultures of the infecting organism diluted to produce 90-100% mortality in control animals within seven days. The diluents used were trypticase soy broth for E. coli, Proteus sp. and Psuedomonas aeruginosa and 5% hog gastric mucin for Staphylococcus aureus infections. The compounds, dissolved or suspended in 0.25% methocel.cndot.H2 O were administered orally by intubation at the time of infection and again at four hours post-infection. Mortality was recorded daily until test termination and the 50 percent effective dose. ED50, was calculated by the Reed-Muench method (Reed, L. G. and Muench, H., "A simple method of estimating fifty percent end points." American Journal of Hygiene, 27, 1938, 493-497).

In experiment [4] the test system is E. coli. Briefly: In vivo efficacy in mice infected intraperitoneally with E. coli (Table III). The note with it: Escherichia coli, 4 h, read-out: ED50, E. Coli. The procedure: as §2
Setting [5] is: broth microdilution, Mueller-Hinton broth, 24 hour.
Setting [6] is: mice, intraperitoneal infection, 5% hog gastric mucin, oral dosing at infection and four hours post-infection, Reed-Muench.
Setting [7] is: mice, intraperitoneal infection, trypticase soy broth, oral dosing at infection and four hours post-infection, Reed-Muench.

With `CN(C)S(=O)(=O)c1ccc(N2CC(CO)OC2=O)cc1` (racemic) [Example 3a, dl-N,N-dimethyl-4-[5-(hydroxymethyl)-2-oxooxazolidin-3-yl]benzenesulfonamide], the results for the MIC in experiment [1] (setting [5]) and in experiment [2] (setting [5]) were 50 µg/mL (≈ 166 µM) and > 200 µg/mL, respectively.

For `CNS(=O)(=O)c1ccc(N2CC(CO)OC2=O)cc1` (racemic) [Example 3b, dl-N-methyl-4-[5-(hydroxymethyl)-2-oxooxazolidin-3-yl]benzenesulfonamide], the results for the MIC in experiment [1] (setting [5]) and in experiment [2] (setting [5]) were 50 µg/mL (≈ 175 µM) and > 200 µg/mL, respectively.

As to `[N-]=[N+]=NS(=O)(=O)c1ccc(N2CC(CO)OC2=O)cc1` (racemic) [Example 4, dl-4-[5-(Hydroxymethyl)-2-oxooxazolidin-3-yl]benzenesulfonyl Azide], the MIC in experiment [1] (setting [5]) was 4.2 µg/mL (≈ 14.1 µM); in experiment [2] (setting [5]) it was 12.5 µg/mL (≈ 41.9 µM). For the same molecule, the ED50 in experiment [3] (setting [6]) came out at 26 mg/kg; in experiment [4] (setting [7]), 17.9 mg/kg.

For `O=C1OC(CO)CN1c1ccc(S(=O)(=O)N(Cl)Cl)cc1` (racemic) [Example 11, dl-N,N-Dichloro-4-[5-(hydroxymethyl)-2-oxooxazolidin-3-yl]benzenesulfonamide], the MIC in experiment [1] (setting [5]) and in experiment [2] (setting [5]) was > 100 µg/mL each time. In addition, the results for the 50% effective dose (ED50) in experiment [3] (setting [6]) and in experiment [4] (setting [7]) were 36.3 mg/kg and 53.7 mg/kg, respectively.

Regarding `O=C1OC(CO)CN1c1ccc(S(=O)(=O)NCl)cc1.[Na]` (racemic) [Example 13, dl-N-Chloro-4-[5-(hydroxymethyl)-2-oxooxazolidin-3-yl]benzenesulfonamide, sodium salt], the figures for the MIC in experiment [1] (24 h) and in experiment [2] (24 h) were 100 µg/mL and 200 µg/mL, respectively. Besides, the ED50 in experiment [3] (po) stood at 47.4 mg/kg; in experiment [4] (po) it was 43.6 mg/kg.

Regarding `CS(C)=NS(=O)(=O)c1ccc(N2CC(CO)OC2=O)cc1` (racemic) [Example 15, dl-N-{4-[5-(Hydroxymethyl)-2-oxooxazolidin-3-yl]-phenylsulfonyl}-S,S-dimethylsulfilimine], the MIC in experiment [1] (setting [5]) and in experiment [2] (setting [5]) was > 100 µg/mL in each case. Also, the 50% effective dose (ED50) in experiment [3] (setting [6]) worked out at 48.5 mg/kg; in experiment [4] (setting [7]) it was 118 mg/kg.

Turning to `NNS(=O)(=O)c1ccc(N2CC(CO)OC2=O)cc1` (racemic) [Example 16, dl-3-[4-Hydrazinosulfonyl)phenyl]-5-(hydroxymethyl)-2-oxazolidin-2-one], the MIC in experiment [1] (setting [5]) and in experiment [2] (setting [5]) was > 100 µg/mL each time. The results for the median effective dose (ED50) in experiment [3] (setting [6]) and in experiment [4] (setting [7]) were 119 mg/kg and > 360 mg/kg, respectively.

Regarding `CC(=O)OCC1CN(c2ccc(S(N)(=O)=O)cc2)C(=O)O1` (racemic) [Example 17, dl-4-[5-(Acetoxymethyl)-2-oxooxazolidin-3-yl]benzenesulfonamide], the MIC in experiment [1] (setting [5]) and in experiment [2] (setting [5]) was > 50 µg/mL each time. The ED50 in experiment [3] (setting [6]) was 47.1 mg/kg; in experiment [4] (setting [7]) it was 48.9 mg/kg.

`CCC(=O)OCC1CN(c2ccc(S(N)(=O)=O)cc2)C(=O)O1` (racemic) [Example 19, dl-4-[5-(Propionyloxymethyl)-2-oxooxazolidin-3-yl]-benzenesulfonamide]: the MIC in experiment [1] (setting [5]) is 25 µg/mL (≈ 76.1 µM); in experiment [2] (setting [5]) it was > 100 µg/mL. The ED50 in experiment [3] (setting [6]) is 166 mg/kg; in experiment [4] (setting [7]), > 360 mg/kg.

In the case of `NS(=O)(=O)c1ccc(N2CC(COC(=O)CCC(=O)O)OC2=O)cc1` (racemic) [Example 20, dl-Butanedioic acid, Mono Ester with 4-[5-(Hydroxymethyl)-2-oxooxazolidin-3-yl]benzenesulfonamide], the MIC in experiment [1] (setting [5]) and in experiment [2] (setting [5]) was > 100 µg/mL throughout. Besides, the ED50 in experiment [3] (setting [6]) was 85.3 mg/kg; in experiment [4] (setting [7]) it was 77.3 mg/kg.

For `O=C(NS(=O)(=O)c1ccc(N2CC(CO)OC2=O)cc1)C(Cl)Cl` (racemic) [Example 34, dl-2,2-Dichloro-N-[4-[5-(Hydroxymethyl)-2-oxooxazolidin-3-yl]phenylsulfonyl]acetamide], the MIC in experiment [1] (setting [5]) and in experiment [2] (setting [5]) was > 200 µg/mL in each case. In experiment [3] (setting [6]), the median effective dose (ED50) is 18.3 mg/kg.

As for `O=C1OC(CO)CN1c1ccc(S(=O)(=O)NC(=O)C(Cl)(Cl)Cl)cc1` (racemic) [Example 35, dl-2,2,2-Trichloro-N-[4-[5-(hyroxymethyl)-2-oxooxazolidin-3-yl]phenylsulfonyl]acetamide], the MIC in experiment [1] (setting [5]) and in experiment [2] (setting [5]) was > 200 µg/mL each time. Moreover, the median effective dose (ED50) in experiment [3] (setting [6]) was 58.5 mg/kg.

As to `CC(=NO)c1ccc(N2CC(CO)OC2=O)cc1` (racemic) [Example 37, dl-5-Hydroxymethyl-3-[4-(1-hydroxyiminoethyl)phenyl]-2-oxazolidinone], the MIC in experiment [1] (setting [5]) and in experiment [2] (setting [5]) was > 50 µg/mL in each case. In experiment [3] (setting [6]), the median effective dose (ED50) stood at 68 mg/kg.

Turning to `CON=C(C)c1ccc(N2CC(CO)OC2=O)cc1` (racemic) [Example 38, dl-5-Hydroxymethyl-3-[4-(1-methoxyiminoethyl)phenyl]-2-oxazolidinone], in experiment [3] (setting [6]), the ED50 came to 76.6 mg/kg.

As for `CC(C)c1ccc(N2CC(CO)OC2=O)cc1` (racemic) [Example 39], in experiment [3] (setting [6]), the ED50 was 116 mg/kg.

In the case of `C=CCOCC1CN(c2ccc(C(C)C)cc2)C(=O)O1` (racemic) [Example 40], in experiment [3] (setting [6]), the 50% effective dose (ED50) stood at 79.8 mg/kg.

Regarding `CC(=O)c1ccc(N2CC(CO)OC2=O)cc1` (racemic) [Example 41], the values for the ED50 in experiment [3] (setting [6]) and in experiment [4] (setting [7]) were 35.8 mg/kg and 97.6 mg/kg, respectively.

With `N#Cc1ccc(N2CC(CO)OC2=O)cc1` (racemic) [Example 42], the median effective dose (ED50) in experiment [3] (setting [6]) came out at 66.4 mg/kg.

For `O=C1OC(CO)CN1c1ccc([N+](=O)[O-])cc1` (racemic) [Example 43], the ED50 was 40 mg/kg in experiment [3] (setting [6]) and > 360 mg/kg in experiment [4] (setting [7]).

Take `NS(=O)(=O)c1ccc(N2CC(CO)OC2=O)cc1` (stereo not shown) [Example 1, 4-[5-(Hydroxymethyl)-2-oxooxazolidin-3-yl]benzenesulfonamide]: the MIC in experiment [1] (setting [5]) and in experiment [2] (setting [5]) was 100 µg/mL (≈ 367 µM) each time. The results for the median effective dose (ED50) in experiment [3] (setting [6]) and in experiment [4] (setting [7]) were 40.2 mg/kg and 19.7 mg/kg, respectively.

For `[N-]=[N+]=NS(=O)(=O)c1ccc(N2C[C@@H](CO)OC2=O)cc1` [Example 5, l-4-[5-(Hydroxymethyl)-2-oxooxazolidin-3-yl]benzenesulfonyl Azide], the MIC in experiment [1] (setting [5]) turned out to be 2.4 µg/mL (≈ 8.05 µM); in experiment [2] (setting [5]), 7.9 µg/mL (≈ 26.5 µM). The ED50 in experiment [3] (setting [6]) was 24.9 mg/kg; in experiment [4] (setting [7]), 14.9 mg/kg.

In the case of `O=C1O[C@H](CO)CN1c1ccc(S(=O)(=O)NC2CC2)cc1` [Example 9, l-4-[5-(Hydroxymethyl)-2-oxooxazolidin-3-yl]-N-cyclopropylbenzenesulfonamide], the MIC in experiment [1] (setting [5]) and in experiment [2] (setting [5]) was > 100 µg/mL in each case. In experiment [3] (setting [6]), the ED50 came to 89.2 mg/kg.

Turning to `CONS(=O)(=O)c1ccc(N2C[C@@H](CO)OC2=O)cc1` [Example 10, l-4-[5-(Hydroxymethyl)-2-oxooxazolidin-3-yl]-N-methoxybenzenesulfonamide], the MIC is 100 µg/mL (≈ 331 µM) in experiment [1] (setting [5]) and > 100 µg/mL in experiment [2] (setting [5]). Also, in experiment [3] (setting [6]), the 50% effective dose (ED50) is 52 mg/kg.

Regarding `COC[C@@H]1CN(c2ccc(SC)cc2)C(=O)O1` [Example 31, l-5-(Methoxymethyl)-3-[4-(methylthio)phenyl]-2-oxazolidinone], the MIC in experiment [1] (setting [5]) and in experiment [2] (setting [5]) was > 200 µg/mL each time. Besides, the 50% effective dose (ED50) in experiment [3] (setting [6]) was determined as 54.6 mg/kg.

As to `COC[C@@H]1CN(c2ccc(S(N)(=O)=O)cc2)C(=O)O1` [Example 33, l-4-[5-(Methoxymethyl)-2-oxooxazolidin-3-yl]benzenesulfonamide], the MIC in experiment [1] (setting [5]) and in experiment [2] (setting [5]) was > 200 µg/mL throughout. For the same molecule, the ED50 in experiment [3] (setting [6]) is 59.6 mg/kg.

(Values after patent US4461773A, “P-Oxooxazolidinylbenzene compounds as antibacterial agents” (E. I. DuPont de Nemours and Company, priority 1984, dated 1984).)
